Experiment [1] deals with T1, Caspase-3 (Homo sapiens, UniProt P42574).
T1 sequence (P42574 whole entry): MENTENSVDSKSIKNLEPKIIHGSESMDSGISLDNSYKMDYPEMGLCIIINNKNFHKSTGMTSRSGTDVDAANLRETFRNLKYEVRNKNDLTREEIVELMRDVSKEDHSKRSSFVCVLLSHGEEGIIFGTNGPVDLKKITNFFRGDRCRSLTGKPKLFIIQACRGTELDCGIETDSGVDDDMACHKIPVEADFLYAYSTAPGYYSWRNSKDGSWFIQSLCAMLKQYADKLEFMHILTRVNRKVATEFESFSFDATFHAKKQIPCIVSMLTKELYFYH
Description: Inhibition of caspase-3 (unknown origin) by microplate reader analysis.

The target in experiment [2] is T2, Ubiquitin carboxyl-terminal hydrolase 28 (Homo sapiens, UniProt Q96RU2).
T2 sequence (Q96RU2 whole entry): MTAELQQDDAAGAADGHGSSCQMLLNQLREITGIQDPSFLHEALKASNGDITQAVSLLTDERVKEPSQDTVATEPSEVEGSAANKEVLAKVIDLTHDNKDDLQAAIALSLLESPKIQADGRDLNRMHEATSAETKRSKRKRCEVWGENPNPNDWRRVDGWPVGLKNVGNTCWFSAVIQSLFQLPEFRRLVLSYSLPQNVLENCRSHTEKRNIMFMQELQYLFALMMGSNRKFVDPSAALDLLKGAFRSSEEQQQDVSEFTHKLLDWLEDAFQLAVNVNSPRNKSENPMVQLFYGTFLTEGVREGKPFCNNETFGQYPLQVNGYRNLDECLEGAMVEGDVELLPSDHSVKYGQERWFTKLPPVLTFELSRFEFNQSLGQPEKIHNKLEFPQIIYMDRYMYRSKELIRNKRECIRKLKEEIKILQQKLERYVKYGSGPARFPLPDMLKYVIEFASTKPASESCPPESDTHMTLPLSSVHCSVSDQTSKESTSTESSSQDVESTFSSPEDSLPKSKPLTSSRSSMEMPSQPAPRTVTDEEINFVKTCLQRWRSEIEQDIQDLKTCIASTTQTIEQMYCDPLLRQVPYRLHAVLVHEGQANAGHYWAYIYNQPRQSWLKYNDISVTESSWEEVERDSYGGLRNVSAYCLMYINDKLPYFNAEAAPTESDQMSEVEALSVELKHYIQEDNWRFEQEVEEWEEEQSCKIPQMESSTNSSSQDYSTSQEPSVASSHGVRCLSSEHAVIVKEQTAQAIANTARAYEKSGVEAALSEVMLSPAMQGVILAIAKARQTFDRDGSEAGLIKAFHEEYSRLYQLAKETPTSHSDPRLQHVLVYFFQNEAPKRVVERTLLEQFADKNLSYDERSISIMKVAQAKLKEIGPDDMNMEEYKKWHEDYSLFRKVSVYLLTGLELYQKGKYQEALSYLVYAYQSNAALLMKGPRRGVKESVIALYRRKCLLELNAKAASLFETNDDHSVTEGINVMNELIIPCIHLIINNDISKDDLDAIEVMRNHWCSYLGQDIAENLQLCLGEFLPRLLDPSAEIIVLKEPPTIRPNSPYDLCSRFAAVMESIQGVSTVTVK
Kind of experiment: Inhibition of USP28 (unknown origin).

The test system of experiment [3] is HCT-116. Kind of experiment: Antiproliferative activity against human HCT-116 cells assessed as reduction in cell viability incubated for 48 hrs by MTT assay. Type of experiment: functional, cell-based. The conditions noted are these: HCT-116, 48 h. In general terms: Formazan colour is commonly taken as a measure of viable cells.
Experiment [4] addresses T3, Ubiquitin carboxyl-terminal hydrolase 19 (Homo sapiens, UniProt O94966).
T3 sequence (O94966 whole entry): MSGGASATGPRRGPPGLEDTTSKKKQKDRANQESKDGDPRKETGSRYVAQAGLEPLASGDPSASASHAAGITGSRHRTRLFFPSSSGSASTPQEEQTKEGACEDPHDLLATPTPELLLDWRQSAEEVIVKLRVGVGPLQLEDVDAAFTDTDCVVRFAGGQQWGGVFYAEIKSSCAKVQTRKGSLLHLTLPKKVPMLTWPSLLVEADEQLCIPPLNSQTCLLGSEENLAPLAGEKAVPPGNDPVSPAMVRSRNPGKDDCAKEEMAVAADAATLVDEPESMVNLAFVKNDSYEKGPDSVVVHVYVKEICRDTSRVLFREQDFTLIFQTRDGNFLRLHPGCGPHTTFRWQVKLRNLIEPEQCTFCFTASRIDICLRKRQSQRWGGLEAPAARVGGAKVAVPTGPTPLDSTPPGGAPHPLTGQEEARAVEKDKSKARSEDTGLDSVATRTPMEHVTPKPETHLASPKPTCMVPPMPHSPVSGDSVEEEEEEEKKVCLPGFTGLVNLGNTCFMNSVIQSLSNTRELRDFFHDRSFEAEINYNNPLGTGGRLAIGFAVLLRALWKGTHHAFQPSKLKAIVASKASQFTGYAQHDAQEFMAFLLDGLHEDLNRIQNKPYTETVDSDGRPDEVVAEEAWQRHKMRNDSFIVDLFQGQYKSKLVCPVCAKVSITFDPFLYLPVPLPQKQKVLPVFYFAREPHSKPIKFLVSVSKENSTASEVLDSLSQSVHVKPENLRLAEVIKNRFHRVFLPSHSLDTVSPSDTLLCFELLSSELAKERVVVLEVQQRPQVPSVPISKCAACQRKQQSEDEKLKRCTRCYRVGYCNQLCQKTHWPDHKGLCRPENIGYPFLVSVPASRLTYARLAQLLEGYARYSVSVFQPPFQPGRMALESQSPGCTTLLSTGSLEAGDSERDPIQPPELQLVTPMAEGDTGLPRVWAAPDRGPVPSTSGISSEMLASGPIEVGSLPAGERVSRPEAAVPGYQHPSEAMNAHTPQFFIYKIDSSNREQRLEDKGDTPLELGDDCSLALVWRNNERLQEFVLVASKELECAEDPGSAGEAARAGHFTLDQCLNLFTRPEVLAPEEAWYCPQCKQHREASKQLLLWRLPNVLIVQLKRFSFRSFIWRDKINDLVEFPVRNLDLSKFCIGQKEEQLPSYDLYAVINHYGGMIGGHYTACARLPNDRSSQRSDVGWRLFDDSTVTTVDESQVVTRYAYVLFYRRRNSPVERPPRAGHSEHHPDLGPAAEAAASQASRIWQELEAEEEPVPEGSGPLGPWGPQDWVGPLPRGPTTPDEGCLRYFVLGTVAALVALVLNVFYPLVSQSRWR
Kind of experiment: Inhibition of C-terminal 6-His tagged USP19 (unknown origin) (1 to 1290 residues) using Ub-Rh110MP as substrate by fluorescence based assay.

Experiment [5] concerns the target Ubiquitin carboxyl-terminal hydrolase 7 (Homo sapiens, UniProt Q93009). Kind of experiment: Inhibition of full length His-tagged human recombinant USP7.
In experiment [6] the target is T4, Ubiquitin carboxyl-terminal hydrolase isozyme L1 (Homo sapiens, UniProt P09936).
T4 sequence (P09936 whole entry): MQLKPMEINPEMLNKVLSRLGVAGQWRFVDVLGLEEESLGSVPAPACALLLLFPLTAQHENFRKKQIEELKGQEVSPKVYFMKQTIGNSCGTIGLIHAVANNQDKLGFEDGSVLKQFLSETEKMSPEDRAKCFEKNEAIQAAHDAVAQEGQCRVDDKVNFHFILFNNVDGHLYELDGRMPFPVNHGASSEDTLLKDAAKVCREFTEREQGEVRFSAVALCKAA
Description: Inhibition of human UCH-L1.

Experiment [7] has as its target T4, Ubiquitin carboxyl-terminal hydrolase isozyme L1. Description: Inhibition of His-tagged UCH-L1 (unknown origin) expressed in Escherichia coli BL21 (DE3) by fluorescence based analysis.
For experiment [8] the target is unchanged. Description: Inhibition of recombinant wild type UCH-L1 (unknown origin) by fluorescence based analysis.

Ten compounds from ChEMBL document CHEMBL5518197, “Recent advances in the development of deubiquitinases inhibitors as antitumor agents” (Eur J Med Chem, 2024) can be followed below.

Broadly, the IC50 is the concentration needed to halve the response being measured.

Structures are written as SMILES.

Ubiquitin carboxyl-terminal hydrolase 7, sequence (Q93009 whole entry): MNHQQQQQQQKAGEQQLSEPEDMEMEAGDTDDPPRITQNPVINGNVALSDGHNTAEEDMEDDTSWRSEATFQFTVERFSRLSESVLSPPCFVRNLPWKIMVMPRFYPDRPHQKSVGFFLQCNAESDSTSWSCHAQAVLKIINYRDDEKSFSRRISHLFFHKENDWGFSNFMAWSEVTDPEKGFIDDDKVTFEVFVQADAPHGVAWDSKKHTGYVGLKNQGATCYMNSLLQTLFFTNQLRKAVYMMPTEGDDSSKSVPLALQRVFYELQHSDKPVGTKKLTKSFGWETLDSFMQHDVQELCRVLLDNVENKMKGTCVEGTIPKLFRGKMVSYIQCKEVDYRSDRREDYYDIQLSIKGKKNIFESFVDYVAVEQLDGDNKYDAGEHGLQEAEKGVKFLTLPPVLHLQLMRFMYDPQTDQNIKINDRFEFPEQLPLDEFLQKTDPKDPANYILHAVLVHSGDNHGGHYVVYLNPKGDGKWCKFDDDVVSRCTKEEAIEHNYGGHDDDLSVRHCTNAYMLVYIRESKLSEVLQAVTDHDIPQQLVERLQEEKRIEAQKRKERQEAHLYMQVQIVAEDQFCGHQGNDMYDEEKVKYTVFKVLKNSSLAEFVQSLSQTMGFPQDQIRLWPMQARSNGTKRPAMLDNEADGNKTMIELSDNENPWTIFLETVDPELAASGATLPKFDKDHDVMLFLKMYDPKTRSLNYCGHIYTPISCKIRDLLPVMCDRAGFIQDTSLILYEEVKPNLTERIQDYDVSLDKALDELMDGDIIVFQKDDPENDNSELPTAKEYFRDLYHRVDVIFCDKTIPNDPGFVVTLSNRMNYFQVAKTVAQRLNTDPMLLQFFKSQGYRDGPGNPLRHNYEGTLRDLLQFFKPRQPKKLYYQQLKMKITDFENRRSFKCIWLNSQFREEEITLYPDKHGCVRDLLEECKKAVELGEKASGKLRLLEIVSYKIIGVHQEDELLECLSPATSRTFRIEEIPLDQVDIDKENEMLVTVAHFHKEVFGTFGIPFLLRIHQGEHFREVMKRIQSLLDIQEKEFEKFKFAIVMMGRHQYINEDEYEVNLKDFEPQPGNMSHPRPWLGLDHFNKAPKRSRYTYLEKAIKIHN

Regarding `C=CC(=O)N1C/C(=C\c2ccc([N+](=O)[O-])cc2)C(=O)/C(=C/c2ccc([N+](=O)[O-])cc2)C1`, the IC50 in experiment [1] was found to be 1050 nM.

Turning to `OCCNCc1cc(Br)ccc1OCc1ccccc1`, in experiment [2], the IC50 is 29.6 µM.

Take `Cc1ccc(S(=O)(=O)Nc2cc(C(F)(F)F)ccc2C(=O)Nc2nc(-c3ccccc3)cs2)cc1`: the IC50 in experiment [3] came to 1100 nM.

Take `O=C1c2ccccc2C(=O)c2oc(-c3ccc(F)cc3)nc21`: in experiment [4], inhibition was half-maximal at 880 nM (IC50). Turning to `O=C1c2ccccc2C(=O)c2oc(-c3ccccc3)nc21`, the IC50 in experiment [4] came out at 544 nM.

Compound `C=CC(=O)N1CC/C(=C\c2ccc(F)c([N+](=O)[O-])c2)C(=O)/C(=C/c2ccc(F)c([N+](=O)[O-])c2)C1` registered a concentration for half-maximal inhibition (IC50) in experiment [1] of 580 nM.

In the case of `O=C(CCc1ccccc1)N1CCC(O)(Cn2cnc3cc(Cl)ccc3c2=O)CC1`, in experiment [5], the IC50 stood at 193 nM. For the compound `CCc1ccc(S(=O)(=O)Nc2ccc(-c3ccc(NS(=O)(=O)c4ccc(CC)cc4)cc3)cc2)cc1`, the IC50 in experiment [6] was 15 µM.

In experiment [7], `COC(=O)CC[C@H](NC(=O)[C@H](C)NC[C@@H](NC(=O)OCc1ccccc1)C(C)C)C(=O)CF` gave an IC50 of 7.7 µM.

`N#CN1CCC[C@H]1C(=O)N1CCc2c(-c3cn[nH]c3C(F)(F)F)cccc21`: the IC50 in experiment [8] amounted to 670 nM.
